Experimental data: paper PMC11012124, “Synthesis of Novel Triazine-Based Chalcones and 8,9-dihydro-7H-pyrimido[4,5-b][1,4]diazepines as Potential Leads in the Search of Anticancer, Antibacterial and Antifungal Agents” (International Journal of Molecular Sciences, 2024)

Tests used:
SK-MEL-28 = assay: cells; details: Homo sapiens, SK-MEL-28, 48 h
UO-31 = assay: cells; details: Homo sapiens, UO-31, 48 h
SW-620 = assay: cells; details: Homo sapiens, SW-620, 48 h
ACHN = assay: cells; details: Homo sapiens, 48 h
UACC-62 = assay: cells; details: Homo sapiens, UACC-62, 48 h
HOP-62 = assay: cells; details: Homo sapiens, HOP-62, 48 h
HCT-15 = assay: cells; details: Homo sapiens, HCT-15, 48 h
BT-549 = assay: cells; details: Homo sapiens, BT-549, 48 h
U251 = assay: cells; details: Homo sapiens, U-251, 48 h
MALME-3M = assay: cells; details: Homo sapiens, 48 h
CAKI-1 = assay: cells; details: Homo sapiens, CAKI-1, 48 h
M14 = assay: cells; details: Homo sapiens, M14, 48 h
SF-539 = assay: cells; details: Homo sapiens, SF-539, 48 h
MDA-MB-468 = assay: cells; details: Homo sapiens, MDA-MB-468, 48 h
HCT-116 = assay: cells; details: Homo sapiens, HCT-116, 48 h
60 cancer cell lines = assay: NCI-60 one-dose screen (10 μM); format: cell-based; details: Homo sapiens; one dose of 10 μM, mean over 60 cancer cell lines; read-out: Mean Growth Percent (MGP)
Text: Additionally, the mean of the growth percentages (MGP) of each compound against all the 60 cancer cell lines is also reported, which is used as one of the selection criteria to continue with tests at five concentration doses.

HCC-2998 = assay: cells; details: Homo sapiens, HCC 2998, 48 h
SNB-19 = assay: cells; details: Homo sapiens, SNB-19, 48 h
HS 578T = assay: cells; details: Homo sapiens, 48 h
MDA-MB-231/ATCC = assay: cells; details: Homo sapiens, MDA-MB-231, 48 h
MOLT-4 = assay: cells; details: Homo sapiens, MOLT-4, 48 h
NCI-H322M = assay: cells; details: Homo sapiens, 48 h
RPMI-8226 = assay: cells; details: Homo sapiens, RPMI-8226, 48 h
OVCAR-8 = assay: cells; details: Homo sapiens, OVCAR-8, 48 h
COLO 205 = assay: cells; details: Homo sapiens, COLO 205, 48 h
EKVX = assay: cells; details: Homo sapiens, 48 h
HT29 = assay: cells; details: Homo sapiens, HT-29, 48 h
PC-3 = assay: cells; details: Homo sapiens, PC-3, 48 h
SK-OV-3 = assay: cells; details: Homo sapiens, SK-OV-3, 48 h
A549/ATCC = assay: cells; details: Homo sapiens, A549, 48 h
KM12 = assay: cells; details: Homo sapiens, KM12, 48 h
DU-145 = assay: cells; details: Homo sapiens, DU-145, 48 h
RXF 393 = assay: cells; details: Homo sapiens, RXF 393, 48 h
NCI-H522 = assay: cells; details: Homo sapiens, NCI-H522, 48 h
T-47D = assay: cells; details: Homo sapiens, T47D, 48 h

SMILES: CN(C)c1nc(NCCNS(=O)(=O)c2ccc(C(=O)/C=C/c3ccc(F)cc3)cc2)nc(N2CCOCC2)n1 [23f]
- GI50 (SK-MEL-28): 14.9 µM
- CC50 (SK-MEL-28; read-out: LC50): 53.4 µM
- GI50 (UO-31): 11 µM
- CC50 (UO-31; read-out: LC50): 47.9 µM
- GI50 (SW-620): 3.38 µM
- CC50 (SW-620; read-out: LC50): 40.8 µM
- GI50 (ACHN): 13.1 µM
- CC50 (ACHN; read-out: LC50): 51.4 µM
- GI50 (UACC-62): 10.8 µM
- CC50 (UACC-62; read-out: LC50): 49.1 µM
- GI50 (HOP-62): 16.1 µM
- CC50 (HOP-62; read-out: LC50): 61.8 µM
- GI50 (HCT-15): 2.15 µM
- CC50 (HCT-15; read-out: LC50): 13.7 µM
- GI50 (BT-549): 15.1 µM
- CC50 (BT-549; read-out: LC50): 56.7 µM
- GI50 (U251; U251, 48 h): 4.74 µM
- CC50 (U251; read-out: LC50): 41.5 µM
- GI50 (MALME-3M): 14.6 µM
- CC50 (MALME-3M; read-out: LC50): 54.4 µM
- GI50 (CAKI-1): 9.5 µM
- CC50 (CAKI-1; read-out: LC50): 48.6 µM
- GI50 (M14): 15 µM
- CC50 (M14; read-out: LC50): 62.2 µM
- GI50 (SF-539): 13.2 µM
- CC50 (SF-539; read-out: LC50, SF-539, 48 h): 51.1 µM
- GI50 (MDA-MB-468): 8.08 µM
- CC50 (MDA-MB-468; read-out: LC50): 54.7 µM
- GI50 (HCT-116): 2.29 µM
- CC50 (HCT-116; read-out: LC50): 16.8 µM
- activity at 10 µM (60 cancer cell lines): 27.6%
- GI50 (HCC-2998): 16 µM
- CC50 (HCC-2998; read-out: LC50): 56 µM
- GI50 (SNB-19): 13.4 µM
- CC50 (SNB-19; read-out: LC50): 52.1 µM
- GI50 (HS 578T): 14.6 µM
- CC50 (HS 578T; read-out: LC50): > 100 µM
- GI50 (MDA-MB-231/ATCC): 12.3 µM
- CC50 (MDA-MB-231/ATCC; read-out: LC50): 51.8 µM
- GI50 (MOLT-4): 4.69 µM
- CC50 (MOLT-4; read-out: LC50): > 100 µM
- GI50 (NCI-H322M): 13.2 µM
- CC50 (NCI-H322M; read-out: LC50): 50.9 µM
- GI50 (RPMI-8226): 1.91 µM
- CC50 (RPMI-8226; read-out: LC50): > 100 µM
- GI50 (OVCAR-8): 14.7 µM
- CC50 (OVCAR-8; read-out: LC50): 54 µM
- GI50 (COLO 205): 14.6 µM
- CC50 (COLO 205; read-out: LC50): 62.4 µM
- GI50 (EKVX): 14.4 µM
- CC50 (EKVX; read-out: LC50): 53.8 µM
- GI50 (HT29): 2.84 µM
- CC50 (HT29; read-out: LC50): 32.3 µM
- GI50 (PC-3): 11.2 µM
- CC50 (PC-3; read-out: LC50): 58.5 µM
- GI50 (SK-OV-3): 13.8 µM
- CC50 (SK-OV-3; read-out: LC50): 55.5 µM
- GI50 (A549/ATCC): 13.7 µM
- CC50 (A549/ATCC; read-out: LC50): 56.8 µM
- GI50 (KM12): 13.4 µM
- CC50 (KM12; read-out: LC50): 70.3 µM
- GI50 (DU-145): 14.4 µM
- CC50 (DU-145; read-out: LC50): 53.8 µM
- GI50 (RXF 393): 8.82 µM
- CC50 (RXF 393; read-out: LC50): 46.5 µM
- GI50 (NCI-H522): 13.3 µM
- CC50 (NCI-H522; read-out: LC50): 53.2 µM
- GI50 (T-47D): 11.9 µM
- CC50 (T-47D; read-out: LC50): 94.2 µM
